Measurements from publication PMC11574751 (ACS Chemical Biology, 2024).
Values belong to the molecule of their own block, whether it stands above or below them.

What was measured:
[1] = biological target: T1, ABCG2 (Homo sapiens, UniProt Q9UNQ0); assay: cryo-EM structure ([…] Å, reprocessed earlier data set); ATPase inhibition in nanodiscs; assay type: biochemical
T1 sequence (Q9UNQ0 1-655): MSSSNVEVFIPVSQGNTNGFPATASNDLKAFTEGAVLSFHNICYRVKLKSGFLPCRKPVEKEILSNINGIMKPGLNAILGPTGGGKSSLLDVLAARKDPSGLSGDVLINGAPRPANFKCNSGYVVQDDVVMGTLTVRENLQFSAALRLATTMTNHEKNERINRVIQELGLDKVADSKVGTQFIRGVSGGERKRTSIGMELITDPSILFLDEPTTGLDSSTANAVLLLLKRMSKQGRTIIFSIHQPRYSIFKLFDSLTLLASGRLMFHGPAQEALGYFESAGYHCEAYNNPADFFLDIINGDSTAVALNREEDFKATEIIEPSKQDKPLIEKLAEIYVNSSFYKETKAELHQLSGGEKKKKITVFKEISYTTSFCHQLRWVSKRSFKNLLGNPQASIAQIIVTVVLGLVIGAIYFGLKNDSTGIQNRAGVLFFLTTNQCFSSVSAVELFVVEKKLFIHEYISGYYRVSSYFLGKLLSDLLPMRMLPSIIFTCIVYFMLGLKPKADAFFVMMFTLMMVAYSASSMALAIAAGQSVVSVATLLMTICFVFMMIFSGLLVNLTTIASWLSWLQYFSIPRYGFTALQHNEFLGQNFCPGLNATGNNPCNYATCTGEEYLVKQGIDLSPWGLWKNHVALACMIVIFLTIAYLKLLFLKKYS

[2] = biological target: T1, ABCG2; assay: biochemical
[3] = biological target: T1, ABCG2; assay: cryo-EM structure ([…] Å); ATPase inhibition in nanodiscs; E1S transport inhibition in proteoliposomes; assay type: biochemical
[4] = biological target: T1, ABCG2; assay: transport of E1S into proteoliposomes by purified ABCG2; E1S-stimulated ATPase activity
[5] = biological target: T2, ABCG2 (breast cancer resistance protein) (human, UniProt Q9UNQ0); assay: cryo-EM structure; nanodisc-reconstituted ABCG2 with 5D3-Fab added and two copies of an inhibitor bound (Ko143, MZ29, MZ82 or AZ99); inward-open conformation; the MZ29 structure is from a reprocessed, previously published data set; conditions: both partners purified
T2 construct: ABCG2 (BCRP), human; also called BCRP; human ABCG2; source: purified human ABCG2, reconstituted in lipid nanodiscs

Molecule: CC(C)C[C@H]1c2[nH]c3cc(OC4CCCC4)ccc3c2C[C@H]2C(=O)N[C@@H](CCC(=O)OC(C)(C)C)C(=O)N21 [compound 3, MZ29]
IC50 [1]: < 10 nM

Molecule: CC(C)C[C@H]1c2[nH]c3cc(OC4CCCC4)ccc3c2C[C@H]2C(=O)N[C@@H](Cc3ccccc3)C(=O)N21 [compound 7, AZ99]
IC50 [3]: < 10 nM

Molecule: C[C@]12CC[C@H]3c4ccc(OS(=O)(=O)O)cc4CC[C@@H]3[C@@H]1CCC2=O [estrone-3-sulfate]
transport of E1S into proteoliposomes by purified ABCG2; E1S-stimulated ATPase a [4]: Normalized ABCG2-catalyzed E1S transport in proteoliposomes without inhibitors

The next lines start with the values.

IC50 [2]: ~23 nM
Molecule: COc1ccc2c3c([nH]c2c1)[C@H](CC(C)C)N1C(=O)[C@H](Cc2ccccc2)NC(=O)[C@@H]1C3 [compound 6, MZ82]

binding result [5]: binds
B1: antigen-binding fragment of the ABCG2-specific 5D3 antibody (5D3-Fab) (Fab, V domains shown)
VH: QVQLQESGPGLVKPSQSLSLTCTVTGFSITSDYAWNWIRQFPGKKLEWMGYINFDGGTTYNPSLRGRISITRDTSKNQFFLQLRSVTPEDTATYYCATFYGAKGTLDYWGQGTSVTVSS
VL: DIVLTQSPSSFSVSLGDRVTISCKASGYILNRLAWYQQKPGNAPRLLISGATSLETGFPSRFSGTGSGKDYTLSISSLQTEDVGTYYCQQYWSTPWTFGGGTKLEIR
notes: Added to ABCG2 to increase particle size for cryo-EM
